Measurements taken from patent USRE34387E, “Method for restoring depleted purine nucleotide pools” (priority 1988, dated 1993).

Tests used:
[1] = tested on: skeletal muscle (gastrocnemius); assay: Purine metabolism in skeletal muscle during and after AICAriboside infusion
[2] = tested on: myocardium; assay: Regional myocardial blood flow, coronary occlusion and 24 hr reperfusion; format: in vivo, dogs; conditions: any time point
Experimental: (§1) Catheters were placed in the left atrium and aorta, and a snare positioned around the left anterior descending coronary artery in 15 open-chest dogs. Regional myocardial blood flow was measured and transmural tissue samples were obtained using known techniques. Blood flow measurements and tissue samples were obtained prior to and just before release of a 12-minute coronary occlusion. The chest was closed and the animals allowed to awaken. Twenty-four hours later, the animals were anesthetized, the chest opened, blood flow measured, and tissue samples obtained. No hemodynamic measurements were made on the animals.
(§2) In seven animals, 200 mM AICAriboside (Sigma Chemical Co.) was infused into the left atrial catether at either 14 μmol/min (n=2) or 37 μmol/min (n=5) beginning with coronary occlusion and continuing for 24 hours. Eight control animals were infused with an equal volume of saline over 24 hours.
(§3) All comparisons between AICAriboside and saline treated animals were done by unpaired analyses.

[3] = tested on: Cardiac muscle; assay: Purine metabolism in normal cardiac muscle during and after AICAriboside infusion
[4] = Serum urate concentrations after AICAriboside infusion; format: in vivo, adult mongrel dogs; conditions: following infusion of 8 mmol
Experimental: Animal Preparation--Seven adult mongrel dogs were anesthetized intramuscularly with 40 mg of morphine sulfate and intravenously with 80 mg/kg of chloralose, an endotraceal tube was inserted, and ventilation was maintained with an Emerson volume-cycled respirator and 100% oxygen. The heart was exposed through a left lateral thoracotomy, polyvinyl chloride catheters (3-mm outer diameter) were inserted into the left atrium and into the aorta through the right femoral artery, and a Statham TTQ electromagnetic flow meter probe was positioned around the ascending aorta. […] Aortic flow was measured with a Howell Instruments Series 1000 Flowmeter, and stroke volume and cardiac output were calculated from the aortic flow measurement. All hemodynamic data were monitored continuously throughout the course of the study. […]
After hemodynamic parameters had stabilized, regional myocardial blood flow was measured by injecting radioactively labled microspheres. […] Venous and arterial blood samples were also obtained at 42 min. of infusion, and regional myocardial blood flow was measured at 10 and 39 min. of AICAriboside infusion. […]
Other Methods--Serum urate was determined by the enzymatic spectrophotometric method as previously described in Liddle et al., J. Lab. […]

[5] = tested on: postischemic myocardium; assay: Nucleotide and creatine phosphate content in postischemic myocardium; format: in vivo, dogs
Experimental: as §1, §2
Nucleotide and creatine phosphate analyses were performed by high performance liquid chromatography on acid extracts of the tissue as previously described. Nucleotide analysis is described in Example 1, and creatine phosphate analysis is described in Juengling and Kammermeier, Anal. Biochem., 102, 358-361 (1980).
as §3

[6] = tested on: cardiovascular system; set-up: species or system adult mongrel dogs; conditions: dog, in vivo
Experimental: Animal Preparation--Seven adult mongrel dogs were anesthetized intramuscularly with 40 mg of morphine sulfate and intravenously with 80 mg/kg of chloralose, an endotraceal tube was inserted, and ventilation was maintained with an Emerson volume-cycled respirator and 100% oxygen. The heart was exposed through a left lateral thoracotomy, polyvinyl chloride catheters (3-mm outer diameter) were inserted into the left atrium and into the aorta through the right femoral artery, and a Statham TTQ electromagnetic flow meter probe was positioned around the ascending aorta. The aortic pressure catheter was connected to a Statham P23 Db transducer (Statham Instruments, Inc., Oxnard, Calif.) with the zero reference at the midchest level. Aortic flow was measured with a Howell Instruments Series 1000 Flowmeter, and stroke volume and cardiac output were calculated from the aortic flow measurement. All hemodynamic data were monitored continuously throughout the course of the study. In 5 of the animals, the skin of the left dorsal hindlimb was opened and the gastrocnemius muscle was identified for subsequent tissue sampling.
After hemodynamic parameters had stabilized, regional myocardial blood flow was measured by injecting radioactively labled microspheres. Tissue samples were obtained from the left ventricle and from the left gastrocnemius muscle. A venous blood sample was also obtained. AICAriboside (100 mM) was then infused into the left atrium at 1.9 ml/min. Repeat tissue samples were taken from the left ventricle at 15, 30 and 42 min. of infusion, and tissue samples were taken from the gastrocnemius muscle at 30 min. of infusion. Venous and arterial blood samples were also obtained at 42 min. of infusion, and regional myocardial blood flow was measured at 10 and 39 min. of AICAriboside infusion. AICAriboside infusion was terminated after 42 min., and tissue samples were taken from the left ventricle at 10, 20, 30 and 60 min. postinfusion and from the left gastrocnemius muscle at 2,22 and 60 min. postinfusion. Venous blood samples were obtained at 10, 30 and 60 min. after AICAriboside infusion. In 4 of the 7 dogs, 400 mM formate was infused intravenously at the rate of 1.9 ml/min. for 42 min. prior to and during AICAriboside infusion. These same animals also received 6 mg of folinic acid as an intravenous bolus 30 min. prior to and 15 min. after initiating AICAriboside infusion.

[7] = before, during or after infusion, detection limit 3 nmol/g
[8] = skeletal muscle, infusion and up to 60 min thereafter
[9] = myocardial, throughout the study
[10] = endo, preocclusion (before infusion)
[11] = epi, preocclusion (before infusion)

NC(=O)c1ncn([C@@H]2O[C@H](CO)[C@@H](O)[C@H]2O)c1N [AICAriboside, 5-amino-4-imidazolecarboxamide riboside]
Adenylosuccinate in biopsies [1, 7]: not detectable
AICAriboside concentration after infusion was stopped ([1]; skeletal muscle): fell rapidly in both tissues
IMP content rise ([1]; skeletal muscle): 6-7 fold
creatine phosphate content ([1]; skeletal muscle, 10.6±0.5 μmol/g at beginning): did not vary significantly
NAD+ content ([1]; skeletal muscle, did not vary throughout infusion): 0.32 ± 0.04 µmol/g
Adenosine ([1]; skeletal muscle, during infusion): did not increase
hypoxanthine content [1, 8]: consistently elevated
inosine content [1, 8]: consistently elevated
regional flow versus saline group [2]: no differences in regional flow at any time point
mean AICAriboside content of cardiac muscle, greater than that of skeletal muscle ([3]; 30 min of infusion): 66%
uptake by myocardial cells ([3]; Example 1): taken up rapidly by myocardial cells
Adenylosuccinate in biopsies [3, 7]: not detectable
time of AICAR peak ([3]; cardiac and skeletal muscle): peaked minutes after AICAriboside infusion was stopped
IMP content increase ([3]; cardiac muscle): 3-4 fold
myocardial content of CTP ([3]; cardiac muscle): no detectable change
adenylate energy charge ([3]; cardiac muscle, 0.929±0.003 before infusion): did not vary during the course of the experiment
creatine phosphate content ([3]; cardiac muscle, 6.8±0.4 μmol/g at beginning): did not vary significantly
TAN (total adenine nucleotide) ([3]; cardiac muscle, 20 min postinfusion): 6.70 ± 0.10 μmol/g. wet weight
Adenosine ([3]; cardiac muscle, during infusion): did not increase
AICAriboside concentration after infusion was stopped ([3]; cardiac muscle, rate of decline greater than in skeletal): fell rapidly in both tissues
ADP change ([3]; cardiac tissue, any time point): did not change significantly at any time point
AMP change ([3]; cardiac tissue, any time point): did not change significantly at any time point
ATP content (increase to) ([3]; cardiac tissue, from 5.55±0.17, p<0.02): 6.07±0.17 μmol/g , wet weight
accumulation of AICAriboside-TP ([3]; cardiac versus skeletal muscle): greater in cardiac muscle
NAD+ content ([3]; heart, did not vary throughout infusion): 0.64 ± 0.01 µmol/g
hypoxanthine content [3, 9]: only minimally increased
inosine content [3, 9]: only minimally increased
distribution from plasma ([3]; similar concentrations in plasma and myocardium): readily diffuses from plasma into the interstitial space and intracellular compartments
mean serum urate concentration increase [4]: 3.7 fold
GTP content versus saline ([5]; 24 hours reperfusion, epicardium and endocardium, P<0.003): greater in the AICAriboside group
epicardial and endocardial ATP content versus saline ([5]; 24 hours reperfusion, previously ischemic region, P<0.001): greater in the AICAriboside group
GTP content restoration ([5]; 24 hours, saline 82% (epi), 78% (endo) of nonischemic): restored to nonischemic levels
ATP content increase after reperfusion ([5]; endo, 24 hours, saline group 21%): 63%
ADP [5, 10]: 0.92 ± 0.03 μmol/g wet wt
AMP [5, 10]: 0.066 ± 0.007 μmol/g wet wt
CP (creatine phosphate) [5, 10]: 6.8 ± 0.7 μmol/g wet wt
CTP [5, 10]: 0.055 ± 0.001 μmol/g wet wt
IMP [5, 10]: 0.004 ± 0.001 μmol/g wet wt
NAD [5, 10]: 0.058 ± 0.04 μmol/g wet wt
UTP [5, 10]: 0.132 ± 0.004 μmol/g wet wt
ATP content increase after reperfusion ([5]; epi, 24 hours, saline group 2%): 41%
ADP [5, 11]: 0.87 ± 0.03 μmol/g wet wt
AMP [5, 11]: 0.064 ± 0.016 μmol/g wet wt
CP (creatine phosphate) [5, 11]: 7.7 ± 0.6 μmol/g wet wt
IMP [5, 11]: 0.005 ± 0.002 μmol/g wet wt
NAD [5, 11]: 0.060 ± 0.02 μmol/g wet wt
UTP [5, 11]: 0.122 ± 0.005 μmol/g wet wt
ATP percentage drop during ischemia versus saline ([5]; occlusion): comparable in both groups
AMP or ADP content versus saline ([5]; postischemic region): no detectable differences
CTP content versus saline ([5]; postischemic region): no statistically significant differences
NAD+ content versus saline ([5]; postischemic region): no statistically significant differences
Total adenine nucleotide content versus saline ([5]; postischemic region): also greater in the AICAriboside group
UTP content versus saline ([5]; postischemic region): no statistically significant differences
Heart rate [6]: not significantly altered
aortic systolic and diastolic pressure [6]: not significantly altered
cardiac output [6]: not significantly altered
epicardial and endocardial regional blood flow [6]: not significantly altered
